Source: patent US20230011571A1, “SMALL MOLECULE FURIN INHIBITORS FOR TREATING INFECTIOUS DISEASES” (BP Asset V, Inc., priority 2019, published 2023)

What was measured:
Type in all cases: cell-based
[1] = tested on: dengue virus (DENV); assay: microbe, parasite or virus in culture; details: Dengue virus, Vero, 120 h, read-out: Percent viral inhibition DENY
[2] = tested on: Marburg virus (MARV); assay: organism not typed; details: Vero, 72 h, read-out: Percent viral inhibition MARV
[3] = tested on: Chikungunya virus (CHIKV); assay: microbe, parasite or virus in culture; details: Chikungunya virus, Vero, 48 h, read-out: Percent viral inhibition CHKV

Row | SMILES | inhibition at 1 µM [1] [%] | inhibition at 1 µM [2] [%] | inhibition at 1 µM [3] [%]
1 | CN1CCN(c2ncc(Oc3cc(CN4CCC(CCC(=O)O)CC4)cc(-c4cc(Cl)cc(Cl)c4)n3)cn2)CC1 [Example 130, 3-(1-((2-(3,5-dichlorophenyl)-6-((2-(4-methylpiperazin-1-yl)pyrimidin-5-yl)oxy)pyridin-4-yl)methyl)piperidin-4-yl)propanoic acid] | 33 | 33.3 | 28.4
2 | CC(CC1CCN(Cc2cc(Oc3cnc(N4CCN(C)CC4)nc3)nc(-c3cc(Cl)cc(Cl)c3)c2)CC1)C(=O)O (stereo not drawn) [Example 131, 3-(1-((2-(3,5-dichlorophenyl)-6-((2-(4-methylpiperazin-1-yl)pyrimidin-5-yl)oxy)pyridin-4-yl)methyl)piperidin-4-yl)-2-methylpropanoic acid] | 20.7 | 52.4 | 3.11
3 | O=C(O)CC1CCN(Cc2cc(Oc3cnc(N4CCCNCC4)nc3)nc(-c3cc(Cl)cc(Cl)c3)c2)CC1 [Example 132, 2-(1-((2-((2-(1,4-diazepan-1-yl)pyrimidin-5-yl)oxy)-6-(3,5-dichlorophenyl)pyridin-4-yl)methyl)piperidin-4-yl) acetic acid] | 32.8 | 46.8 | 35.2
4 | CN1CC2CN(c3ncc(Oc4cc(CN5CCC(CC(=O)O)CC5)cc(-c5cc(Cl)cc(Cl)c5)n4)cn3)CC2C1 (stereo not drawn) [Example 133, 2-(1-((2-(3,5-dichlorophenyl)-6-((2-(5-methylhexahydropyrrolo[3,4-c]pyrrol-2(1H)-yl)pyrimidin-5-yl)oxy)pyridin-4-yl)methyl)piperidin-4-yl)acetic acid] | 47.8 | 54 | 43.4
5 | C[C@@H](CC1CCN(Cc2cc(Oc3cnc(N4CCN(C)CC4)nc3)nc(-c3cc(Cl)cc(Cl)c3)c2)CC1)C(=O)O [Example 134, (S)-3-(1-((2-(3,5-dichlorophenyl)-6-((2-(4-methylpiperazin-1-yl)pyrimidin-5-yl)oxy)pyridin-4-yl)methyl)piperidin-4-yl)-2-methylpropanoic acid] | 43.2 | 45.1 | 0
6 | CN1CCN(c2ncc(Oc3cc(CN4CCC5(CC4)CN(C(=O)CO)C5)cc(-c4cc(Cl)cc(Cl)c4)n3)cn2)CC1 [Example 135, 1-(7-((2-(3,5-dichlorophenyl)-6-((2-(4-methylpiperazin-1-yl)pyrimidin-5-yl)oxy)pyridin-4-yl)methyl)-2,7-diazaspiro[3.5]nonan-2-yl)-2-hydroxyethanone] | 56.2 | 51.3 | 12.8
7 | CN1CCN(c2ccc(Oc3cc(CN4CC[C@@H]5[C@H](CC4)[C@H]5C(=O)O)cc(-c4cc(Cl)cc(Cl)c4)n3)cn2)CC1 [Example 136, (1R,7S,8r)-4-((2-(3,5-dichlorophenyl)-6-((6-(4-methylpiperazin-1-yl)pyridin-3-yl)oxy)pyridin-4-yl)methyl)-4-azabicyclo[5.1.0]octane-8-carboxylic acid] | 18 | 57.8 | 39.8
8 | CC(O)CC1CCN(Cc2cc(Oc3cnc(N4CCN(C)CC4)nc3)nc(-c3cc(Cl)cc(Cl)c3)c2)CC1 (stereo not drawn) [Example 138, 1-(1-((2-(3,5-dichlorophenyl)-6-((2-(4-methylpiperazin-1-yl)pyrimidin-5-yl)oxy)pyridin-4-yl)methyl)piperidin-4-yl)propan-2-ol] | 54.9 | 32.4 | 21.7
9 | CN1CCCN(c2ncc(Oc3cc(CN4CCC(OCC(=O)O)CC4)cc(-c4cc(Cl)cc(Cl)c4)n3)cn2)CC1 [Example 140, 2-((1-((2-(3,5-dichlorophenyl)-6-((2-(4-methyl-1,4-diazepan-1-yl)pyrimidin-5-yl)oxy)pyridin-4-yl)methyl)piperidin-4-yl)oxy)acetic acid] | 14.1 | 51.5 | 32.7
10 | CN1CCN(c2ccc(Oc3cc(CN4CCC5(CC4)CNC(=O)OC5)cc(-c4cc(Cl)cc(Cl)c4)n3)cn2)CC1 [Example 141, 9-((2-(3,5-dichlorophenyl)-6-((6-(4-methylpiperazin-1-yl)pyridin-3-yl)oxy)pyridin-4-yl)methyl)-2-oxa-4,9-diazaspiro[5.5]undecan-3-one] | 27.7 | 66.6 | 20.9
11 | CN1CCN(c2ncc(Oc3cc(CN4CCC(CC(N)=O)CC4)cc(-c4cc(Cl)cc(Cl)c4)n3)cn2)CC1 [Example 142, 2-(1-((2-(3,5-dichlorophenyl)-6-((2-(4-methylpiperazin-1-yl)pyrimidin-5-yl)oxy)pyridin-4-yl)methyl)piperidin-4-yl)acetamide] | 51.5 | 49.1 | 15.4
12 | CN1CCN(c2ncc(Oc3cc(CN4CCC(OC5(C(=O)O)CC5)CC4)cc(-c4cc(Cl)cc(Cl)c4)n3)cn2)CC1 [Example 143, 1-((1-((2-(3,5-dichlorophenyl)-6-((2-(4-methylpiperazin-1-yl)pyrimidin-5-yl)oxy)pyridin-4-yl)methyl)piperidin-4-yl)oxy)cyclopropanecarboxylic acid] | 34.5 | 40.5 | 34.4
13 | COC1CN(C)CCN(c2ncc(Oc3cc(CN4CCC(CC(=O)O)CC4)cc(-c4cc(Cl)cc(Cl)c4)n3)cn2)C1 (stereo not drawn) [Example 144, 2-(1-((2-(3,5-dichlorophenyl)-6-((2-(6-methoxy-4-methyl-1,4-diazepan-1-yl)pyrimidin-5-yl)oxy)pyridin-4-yl)methyl)piperidin-4-yl)acetic acid] | 35 | 56.6 | 32.6
14 | CN1CCN(c2ncc(Oc3cc(CN4CCC(CC(=O)O)CC4)cc(-c4cc(Cl)cc(Cl)c4)n3)cn2)CC(C)(O)C1 (stereo not drawn) [Example 146, 2-(1-((2-(3,5-dichlorophenyl)-6-((2-(6-hydroxy-4,6-dimethyl-1,4-diazepan-1-yl)pyrimidin-5-yl)oxy)pyridin-4-yl)methyl)piperidin-4-yl)acetic acid] | 41.8 | 66.2 | 23.1
15 | CN1CCN(c2ncc(Oc3cc(CN4CCC(CC(=O)O)CC4)cc(-c4cc(Cl)cc(Cl)c4)n3)cn2)CC(F)C1 (stereo not drawn) [Example 147, 2-(1-((2-(3,5-dichlorophenyl)-6-((2-(6-fluoro-4-methyl-1,4-diazepan-1-yl)pyrimidin-5-yl)oxy)pyridin-4-yl)methyl)piperidin-4-yl)acetic acid] | 42.8 | 44.2 | 31.7
16 | CNC1CCN(c2ncc(Oc3cc(CN4CCC(CC(=O)O)CC4)cc(-c4cc(Cl)cc(Cl)c4)n3)cn2)C1 (stereo not drawn) [Example 152, 2-(1-((2-(3,5-dichlorophenyl)-6-((2-(3-(methylamino)pyrrolidin-1-yl)pyrimidin-5-yl)oxy)pyridin-4-yl)methyl)piperidin-4-yl)acetic acid] | 19 | 44.1 | 16.3
17 | CN1CCN(c2ncc(Oc3cc(CN4CCO[C@H](CCO)CC4)cc(-c4cc(Cl)cc(Cl)c4)n3)cn2)CC1 [Example 153, (S)-2-(4-((2-(3,5-dichlorophenyl)-6-((2-(4-methylpiperazin-1-yl)pyrimidin-5-yl)oxy)pyridin-4-yl)methyl)-1,4-oxazepan-7-yl)ethanol] | 41.5 | 56.8 | 14.1
